From patent US6762174B1 (priority 1998, dated 2004)
Read-outs that look alike come from different tables or passages of the source.

Legend:
B16 melanoma = format: in vivo, female BDF1 mice
[1] = test system: MT-1 breast cancer xenograft; assay: MT-1 breast cancer xenograft, second experiment: BT on day 3 only; format: in vivo, male nude mice
Protocol: In the second experiment with MT-1 breast cancer, BT was administered on day three only, at doses of […] to 3 micrograms/kg. The T/C ratio of treated vs. control median RTV was measured on day 28. […] The other doses of BT (30 ng, 3 ng, 0.3 ng, and 0.03 ng) alone were not effective in this experiment. These observations of RTV were made only through day 28.

[2] = test system: MT-1 breast cancer xenograft; assay: MT-1 breast cancer xenograft: BT by intratumor injection; format: in vivo, male nude mice; parameters: Median RTV: unit not given here; settings: for Median RTV: BT 30 ng intratumor
Protocol: In a parallel experiment, a low dose of 30 ng of BT was injected directly into the tumor on days 3, 17 and 31. The T/C for RTV measured on day 35 was 50%.

[3] = test system: MT-1 breast cancer xenograft
MOPC-315 myeloma [4] = assay: MOPC-315 Myeloma study #1: β-alethine ip day 2 (1 × 10^6 tumor cells)
MOPC-315 myeloma [5] = assay: MOPC-315 Myeloma study #3: β-alethine ip day 0 (3 × 10^5 tumor cells); settings: for Animals Surviving: BT 100 ng/kg

In the case of `NCCC(=O)NCCSSCCNC(=O)CCN` [BT, β-alethine], the “Primary Tumor Size (Median RTV)” value (B16 melanoma; BT 30 pg/kg alone, day 0) is reported as 1, the “Primary Tumor Size (Median RTV)” value (B16 melanoma; BT 30 pg/kg alone, day 4) is reported as 1.0 and the “Primary Tumor Size (Median RTV)” value (B16 melanoma; BT 30 pg/kg alone, day 7) is reported as 1.8. The “Primary Tumor Size (Median RTV)” value (B16 melanoma; BT 30 pg/kg alone, day 10) was 6.0, the “Primary Tumor Size (Median RTV)” value (B16 melanoma; BT 30 pg/kg alone, day 14) was 17.3 and the “Primary Tumor Size (Median RTV)” value (B16 melanoma; BT 30 pg/kg alone, day 17) was 62.0. The “Primary Tumor Size (Median RTV)” value (B16 melanoma; BT 30 ng/kg alone, day 0) was 1, the “Primary Tumor Size (Median RTV)” value (B16 melanoma; BT 30 ng/kg alone, day 4) was 1.0 and the “Primary Tumor Size (Median RTV)” value (B16 melanoma; BT 30 ng/kg alone, day 7) was 3.1. The “Primary Tumor Size (Median RTV)” value (B16 melanoma; BT 30 ng/kg alone, day 10) was 8.1, the “Primary Tumor Size (Median RTV)” value (B16 melanoma; BT 30 ng/kg alone, day 14) was 15.7 and the “Primary Tumor Size (Median RTV)” value (B16 melanoma; BT 30 ng/kg alone, day 17) was 32.4. For the same molecule, the “Primary Tumor Size (Median RTV)” value (B16 melanoma; BT 30 ug/kg alone, day 0) was 1, the “Primary Tumor Size (Median RTV)” value (B16 melanoma; BT 30 ug/kg alone, day 4) was 1.0 and the “Primary Tumor Size (Median RTV)” value (B16 melanoma; BT 30 ug/kg alone, day 7) was 1.3. The “Primary Tumor Size (Median RTV)” value (B16 melanoma; BT 30 ug/kg alone, day 10) was 5.5, the “Primary Tumor Size (Median RTV)” value (B16 melanoma; BT 30 ug/kg alone, day 14) was 16.6 and the “Primary Tumor Size (Median RTV)” value (B16 melanoma; BT 30 ug/kg alone, day 17) was 30.4. For the same molecule, the “Primary Tumor Size (Median RTV)” value (B16 melanoma; BT 30 mg/kg alone, day 0) was 1, the “Primary Tumor Size (Median RTV)” value (B16 melanoma; BT 30 mg/kg alone, day 4) was 1.7 and the “Primary Tumor Size (Median RTV)” value (B16 melanoma; BT 30 mg/kg alone, day 7) was 3.3. The “Primary Tumor Size (Median RTV)” value (B16 melanoma; BT 30 mg/kg alone, day 10) was 7.5, the “Primary Tumor Size (Median RTV)” value (B16 melanoma; BT 30 mg/kg alone, day 14) was 23.2 and the “Primary Tumor Size (Median RTV)” value (B16 melanoma; BT 30 mg/kg alone, day 17) was 34.8. The “Primary Tumor Size (Median RTV)” value (B16 melanoma; BT 30 fg/kg alone, day 0) was 1, the “Primary Tumor Size (Median RTV)” value (B16 melanoma; BT 30 fg/kg alone, day 4) was 1.7 and the “Primary Tumor Size (Median RTV)” value (B16 melanoma; BT 30 fg/kg alone, day 7) was 2.4. The “Primary Tumor Size (Median RTV)” value (B16 melanoma; BT 30 fg/kg alone, day 10) was 7.0, the “Primary Tumor Size (Median RTV)” value (B16 melanoma; BT 30 fg/kg alone, day 14) was 16.1 and the “Primary Tumor Size (Median RTV)” value (B16 melanoma; BT 30 fg/kg alone, day 17) was 41.6. The effectiveness ([1]; BT 30 ng, 3 ng, 0.3 ng, 0.03 ng alone) was “not effective”, the “T/C ratio of median RTV” value ([1]; BT 300 ng/kg day 3, day 28) was 42% and the “Median RTV” value ([1]; BT 300 ng/kg on Day 3, day 8) was 1.105. The “Median RTV” value ([1]; BT 300 ng/kg on Day 3, day 14) was 1.243, the “Median RTV” value ([1]; BT 300 ng/kg on Day 3, day 21) was 2.532 and the “Median RTV” value ([1]; BT 300 ng/kg on Day 3, day 28) was 3.317. For the same molecule, the “T/C ratio of median RTV” value ([1]; BT 3 ug/kg day 3, day 28) was 32%, the “Median RTV” value ([1]; BT 3 ug/kg on Day 3, day 8) was 1.012 and the “Median RTV” value ([1]; BT 3 ug/kg on Day 3, day 14) was 0.955. For the same molecule, the “Median RTV” value ([1]; BT 3 ug/kg on Day 3, day 21) was 1.756, the “Median RTV” value ([1]; BT 3 ug/kg on Day 3, day 28) was 2.526 and the “T/C for RTV” value ([2]; 30 ng BT into the tumor days 3, 17, 31, day 35) was 50%. For the same molecule, the “Median RTV” value ([2]; day 8) was 1.27, the “Median RTV” value ([2]; day 11) was 1.40 and the “Median RTV” value ([2]; day 14) was 1.77. For the same molecule, the “Median RTV” value ([2]; day 17) was 2.61, the “Median RTV” value ([2]; day 21) was 3.74 and the “Median RTV” value ([2]; day 24) was 4.34. The “Median RTV” value ([2]; day 28) was 4.93, the “Median RTV” value ([2]; day 31) was 6.37 and the “Median RTV” value ([2]; day 35) was 8.01. For the same molecule, the “T/C RTV d 49” value ([3]; BT 30 mg/kg) was 72%, the “T/C RTV d 59” value ([3]; BT 30 mg/kg) was 165% and the effectiveness ([3]; BT 30 mg/kg alone) was “not effective”. The “WBC d 46” value ([3]; mouse, in vivo) was 14.4 10^6/mL, the “Animals Surviving” value (MOPC-315 myeloma [4]; BT 3 ng/kg, day 10) was 10 and the “Animals Surviving” value (MOPC-315 myeloma [4]; BT 3 ng/kg, day 11) was 10. For the same molecule, the “Animals Surviving” value (MOPC-315 myeloma [4]; BT 3 ng/kg, day 12) was 10, the “Animals Surviving” value (MOPC-315 myeloma [4]; BT 3 ng/kg, day 13) was 9 and the “Animals Surviving” value (MOPC-315 myeloma [4]; BT 3 ng/kg, day 14) was 8. For the same molecule, the “Animals Surviving” value (MOPC-315 myeloma [4]; BT 3 ng/kg, day 15) was 7, the “Animals Surviving” value (MOPC-315 myeloma [4]; BT 3 ng/kg, day 16) was 6 and the “Animals Surviving” value (MOPC-315 myeloma [4]; BT 3 ng/kg, day 17) was 4. For the same molecule, the “Animals Surviving” value (MOPC-315 myeloma [4]; BT 3 ng/kg, day 18) was 3, the “Animals Surviving” value (MOPC-315 myeloma [4]; BT 3 ng/kg, day 19) was 3 and the “Animals Surviving” value (MOPC-315 myeloma [4]; BT 3 ng/kg, day 20) was 2. The “Animals Surviving” value (MOPC-315 myeloma [4]; BT 3 ng/kg, day 21) was 0, the “Animals Surviving” value (MOPC-315 myeloma [4]; BT 100 μg/kg, day 10) was 10 and the “Animals Surviving” value (MOPC-315 myeloma [4]; BT 100 μg/kg, day 11) was 10. The “Animals Surviving” value (MOPC-315 myeloma [4]; BT 100 μg/kg, day 12) was 10, the “Animals Surviving” value (MOPC-315 myeloma [4]; BT 100 μg/kg, day 13) was 10 and the “Animals Surviving” value (MOPC-315 myeloma [4]; BT 100 μg/kg, day 14) was 7. For the same molecule, the “Animals Surviving” value (MOPC-315 myeloma [4]; BT 100 μg/kg, day 15) was 6, the “Animals Surviving” value (MOPC-315 myeloma [4]; BT 100 μg/kg, day 16) was 6 and the “Animals Surviving” value (MOPC-315 myeloma [4]; BT 100 μg/kg, day 17) was 5. The “Animals Surviving” value (MOPC-315 myeloma [4]; BT 100 μg/kg, day 18) was 3, the “Animals Surviving” value (MOPC-315 myeloma [4]; BT 100 μg/kg, day 19) was 3 and the “Animals Surviving” value (MOPC-315 myeloma [4]; BT 100 μg/kg, day 20) was 1. For the same molecule, the “Animals Surviving” value (MOPC-315 myeloma [4]; BT 100 μg/kg, day 21) was 0, the “Animals Surviving” value (MOPC-315 myeloma [4]; BT 3 mg/kg, day 10) was 10 and the “Animals Surviving” value (MOPC-315 myeloma [4]; BT 3 mg/kg, day 11) was 10. The “Animals Surviving” value (MOPC-315 myeloma [4]; BT 3 mg/kg, day 12) was 10, the “Animals Surviving” value (MOPC-315 myeloma [4]; BT 3 mg/kg, day 13) was 10 and the “Animals Surviving” value (MOPC-315 myeloma [4]; BT 3 mg/kg, day 14) was 7. The “Animals Surviving” value (MOPC-315 myeloma [4]; BT 3 mg/kg, day 15) was 4, the “Animals Surviving” value (MOPC-315 myeloma [4]; BT 3 mg/kg, day 16) was 4 and the “Animals Surviving” value (MOPC-315 myeloma [4]; BT 3 mg/kg, day 17) was 3. The “Animals Surviving” value (MOPC-315 myeloma [4]; BT 3 mg/kg, day 18) was 2, the “Animals Surviving” value (MOPC-315 myeloma [4]; BT 3 mg/kg, day 19) was 2 and the “Animals Surviving” value (MOPC-315 myeloma [4]; BT 3 mg/kg, day 20) was 1. For the same molecule, the “Animals Surviving” value (MOPC-315 myeloma [4]; BT 3 mg/kg, day 21) was 1, the “Animals Surviving” value (MOPC-315 myeloma [4]; BT 3 mg/kg, day 22) was 1 and the “Animals Surviving” value (MOPC-315 myeloma [4]; BT 3 mg/kg, day 23) was 1. The “Animals Surviving” value (MOPC-315 myeloma [4]; BT 3 mg/kg, day 24) was 0, the “Animals Surviving” value (MOPC-315 myeloma [4]; BT 30 fg/kg, day 10) was 10 and the “Animals Surviving” value (MOPC-315 myeloma [4]; BT 30 fg/kg, day 11) was 10. The “Animals Surviving” value (MOPC-315 myeloma [4]; BT 30 fg/kg, day 12) was 10, the “Animals Surviving” value (MOPC-315 myeloma [4]; BT 30 fg/kg, day 13) was 8 and the “Animals Surviving” value (MOPC-315 myeloma [4]; BT 30 fg/kg, day 14) was 5. For the same molecule, the “Animals Surviving” value (MOPC-315 myeloma [4]; BT 30 fg/kg, day 15) was 3, the “Animals Surviving” value (MOPC-315 myeloma [4]; BT 30 fg/kg, day 16) was 3 and the “Animals Surviving” value (MOPC-315 myeloma [4]; BT 30 fg/kg, day 17) was 3. For the same molecule, the “Animals Surviving” value (MOPC-315 myeloma [4]; BT 30 fg/kg, day 18) was 2, the “Animals Surviving” value (MOPC-315 myeloma [4]; BT 30 fg/kg, day 19) was 2 and the “Animals Surviving” value (MOPC-315 myeloma [4]; BT 30 fg/kg, day 20) was 0. For the same molecule, the “Animals Surviving” value (MOPC-315 myeloma [4]; BT 30 fg/kg, day 21) was 0, the “Animals Surviving” value (MOPC-315 myeloma [5]; day 10) was 10 and the “Animals Surviving” value (MOPC-315 myeloma [5]; day 11) was 10. The “Animals Surviving” value (MOPC-315 myeloma [5]; day 12) was 10, the “Animals Surviving” value (MOPC-315 myeloma [5]; day 13) was 10 and the “Animals Surviving” value (MOPC-315 myeloma [5]; day 14) was 7. The “Animals Surviving” value (MOPC-315 myeloma [5]; day 17) was 0 and the “survival prolonged to” value (MOPC-315 myeloma [5]; BT 3 mg/kg, control 16 days) was 18 days.
